Measurements published in patent US11730720B2, “ALK5 inhibitors” (THERAVANCE BIOPHARMA R&D IP, LLC, priority 2018, dated 2023).

Assays:
[1] = system: TGF-β-stimulated SMAD3 phosphorylation in BEAS-2B cells; experiment: Cellular ALK5 potency assay, inhibition of TGF-β stimulated pSMAD3 formation in BEAS-2B cells; format: cell-based; conditions: Homo sapiens, inhibition of TGF-β (10 ng/mL) stimulated pSMAD3 formation, 1 hour compound incubation, read-out: BEAS2B pIC50 (converted)
Procedure, shortened: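 Phospho-SMAD3 was quantified by AlphaLISA in lysates of human lung epithelial BEAS-2B cells. Compound was added 1 h (37 °C, HEPES/BSA-supplemented HBSS) before a 30 min challenge with 10 ng/mL TGF-β. Values are pIC50 relative to stimulated cells without compound.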

[2] = target: T1, recombinant human ALK5 (TGF-βR1) protein (Homo sapiens, UniProt P36897); experiment: Biochemical ALK5 (TGF-βR1) assay to measure pKi (LANCE Ultra ULight kinase assay); conditions: apparent pKi, converted from pIC50 using the Cheng-Prusoff equation
T1 construct: purchased Life Technologies PR9075A
T1 sequence (P36897 34-503): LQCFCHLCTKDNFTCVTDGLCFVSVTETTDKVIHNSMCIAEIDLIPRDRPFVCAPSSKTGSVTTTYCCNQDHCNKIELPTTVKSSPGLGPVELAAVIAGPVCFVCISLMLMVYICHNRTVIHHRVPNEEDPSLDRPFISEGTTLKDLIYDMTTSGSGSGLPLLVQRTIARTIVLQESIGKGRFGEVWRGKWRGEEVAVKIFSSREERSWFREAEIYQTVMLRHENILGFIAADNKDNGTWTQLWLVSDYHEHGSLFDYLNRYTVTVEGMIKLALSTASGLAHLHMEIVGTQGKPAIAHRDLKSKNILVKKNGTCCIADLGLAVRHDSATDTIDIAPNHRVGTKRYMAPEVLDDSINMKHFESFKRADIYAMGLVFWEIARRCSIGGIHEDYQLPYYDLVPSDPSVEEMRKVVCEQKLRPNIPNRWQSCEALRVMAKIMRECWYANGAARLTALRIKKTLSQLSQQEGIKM
Procedure, shortened: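 TR-FRET kinase format: compound dose range 10 μM–25 pM equilibrated 60 min with human ALK5 and ULight-labelled topoisomerase 2α peptide in HEPES/MgCl2 buffer pH 7.5 with DTT. Reaction started with ATP (125 μM stock, 5× final), 60 min at 37° C, stopped with EDTA/Eu-anti-phospho antibody; pKi derived from pIC50 via Cheng-Prusoff.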

Row | Ki [2] | Compound | IC50 [1]
1 | 0.398 to 3.16 nM | Fc1ccc(Cl)cc1-c1[nH]nnc1-c1ccc2ncc(N3CCNCC3)cc2c1 [Compound 18-5, 6-[5-(5-chloro-2-fluoro-phenyl)-1H-triazol-4-yl]-3-piperazin-1-yl-quinoline] | 25.1 to 158 nM
2 | ≤ 0.0316 nM | Fc1ccc(Cl)cc1-c1n[nH]cc1-c1ccc2ncc(-c3cn(Cc4c[nH]cn4)nn3)cc2n1 [Compound 1-111, 2-[3-(5-chloro-2-fluoro-phenyl)-1H-pyrazol-4-yl]-7-[1-(1H-imidazol-4-ylmethyl)triazol-4-yl]-1,5-naphthyridine] | 25.1 to 158 nM
3 | 0.398 to 3.16 nM | CN(C)C1CCN(c2cnc3ccc(-c4c[nH]nc4-c4ccc(F)c(F)c4)nc3c2)CC1 [Compound 8-7, 1-[6-[3-(3,4-difluorophenyl)-1H-pyrazol-4-yl]-1,5-naphthyridin-3-yl]-N,N-dimethyl-piperidin-4-amine] | 25.1 to 158 nM
4 | ≤ 0.0316 nM | Fc1ccc(Cl)cc1-c1n[nH]cc1-c1ccc2ncc(N3CCn4nc(C5=CCNC5)nc4C3)cc2n1 [Compound 1-85, 2-(3-(5-chloro-2-fluorophenyl)-1H-pyrazol-4-yl)-7-(2-(2,5-dihydro-1H-pyrrol-3-yl)-5,6-dihydro-[1,2,4]triazolo[1,5-a]pyrazin-7(8H)-yl)-1,5-naphthyridine] | 25.1 to 158 nM
5 | 0.398 to 3.16 nM | COC(=O)c1cnc2ccc(-c3[nH]nnc3-c3cc(Cl)ccc3F)nc2c1 [Compound 5-1, methyl 6-(4-(5-chloro-2-fluorophenyl)-1H-1,2,3-triazol-5-yl)-1,5-naphthyridine-3-carboxylate] | 25.1 to 158 nM
6 | 3.98 to 31.6 nM | Fc1ccc(Cl)cc1-c1[nH]nnc1-c1ccc2ncc(N3CCCNCC3)cc2c1 [Compound 18-7, 6-[5-(5-chloro-2-fluoro-phenyl)-1H-triazol-4-yl]-3-(1,4-diazepan-1-yl)quinoline] | 200 to 1260 nM
7 | 0.0398 to 0.316 nM | CC(C)N1CCN(c2cnc3ccc(-c4c[nH]nc4-c4cc(Cl)ccc4F)nc3c2)CC1 [Compound 1-43, 2-[3-(5-chloro-2-fluoro-phenyl)-1H-pyrazol-4-yl]-7-(4-isopropylpiperazin-1-yl)-1,5-naphthyridine] | 25.1 to 158 nM
8 | 0.0398 to 0.316 nM | CNCCn1cc(-c2cnc3ccc(-c4c[nH]nc4-c4ccc(F)c(F)c4)nc3c2)nn1 [Compound 8-27, 2-(4-(6-(3-(3,4-difluorophenyl)-1H-pyrazol-4-yl)-1,5-naphthyridin-3-yl)-1H-1,2,3-triazol-1-yl)-N-methylethan-1-amine] | 25.1 to 158 nM
9 | 0.0398 to 0.316 nM | Fc1ccc(Cl)cc1-c1[nH]cnc1-c1ccc2ncc(-c3cn[nH]c3)cc2c1 [Compound 17-1, 6-(5-(5-chloro-2-fluorophenyl)-1H-imidazol-4-yl)-3-(1H-pyrazol-4-yl)quinoline] | ≤ 20 nM
10 | 0.0398 to 0.316 nM | Fc1ccc(Cl)cc1-c1n[nH]cc1-c1ccc2ncc(-c3cn4c(n3)CNCC4)cc2n1 [Compound 1-116, 2-[3-(5-chloro-2-fluoro-phenyl)-1H-pyrazol-4-yl]-7-(5,6,7,8-tetrahydroimidazo[1,2-a]pyrazin-2-yl)-1,5-naphthyridine] | 25.1 to 158 nM
11 | ≤ 0.0316 nM | CN1CCN(C2CCN(c3cnc4ccc(-c5c[nH]nc5-c5cc(Cl)ccc5F)nc4c3)CC2)CC1 [Compound 1-83, 2-[3-(5-chloro-2-fluoro-phenyl)-1H-pyrazol-4-yl]-7-[4-(4-methylpiperazin-1-yl)-1-piperidyl]-1,5-naphthyridine] | ≤ 20 nM
12 | 0.398 to 3.16 nM | CC(C)N1CCN(CCNc2cnc3ccc(-c4nc[nH]c4-c4cccc(Cl)c4)nc3c2)CC1 [Compound 29-1, 6-(5-(3-chlorophenyl)-1H-imidazol-4-yl)-N-(2-(4-isopropylpiperazin-1-yl)ethyl)-1,5-naphthyridin-3-amine] | ≤ 20 nM
13 | 3.98 to 31.6 nM | Fc1cc(F)c(-c2n[nH]cc2-c2ccc3ncc(-c4ncc5n4CCN5)cc3n2)cc1Cl [Compound 6-65, 2-[3-(5-chloro-2,4-difluoro-phenyl)-1H-pyrazol-4-yl]-7-(2,3-dihydro-1H-imidazo[1,2-c]imidazol-5-yl)-1,5-naphthyridine] | 200 to 1260 nM
14 | 0.0398 to 0.316 nM | NCCN1CCN(c2cnc3ccc(-c4c[nH]nc4-c4cc(Cl)c(F)cc4F)nc3c2)CC1 [Compound 6-36, 2-[4-[6-[3-(5-chloro-2,4-difluoro-phenyl)-1H-pyrazol-4-yl]-1,5-naphthyridin-3-yl]piperazin-1-yl]ethanamine] | 25.1 to 158 nM
15 | 0.398 to 3.16 nM | CNCCn1cc(-c2cnc3ccc(-c4c(-c5cc(Cl)ccc5F)[nH]c5cccnc45)cc3c2)cn1 [Compound 21-1, 2-(4-(6-(2-(5-chloro-2-fluorophenyl)-1H-pyrrolo[3,2-b]pyridin-3-yl)quinolin-3-yl)-1H-pyrazol-1-yl)-N-methylethan-1-amine] | 200 to 1260 nM
16 | 0.0398 to 0.316 nM | Cn1cccc(-c2cnc3ccc(-c4c[nH]nc4-c4cc(Cl)ccc4F)nc3c2)c1=O [Compound 1-90, 3-(6-(3-(5-chloro-2-fluorophenyl)-112-pyrazol-4-yl)-1,5-naphthyridin-3-yl)-1-methylpyridin-2(1H)-one] | ≤ 20 nM
17 | 0.0398 to 0.316 nM | CN(C)C1CN(c2cnc3ccc(-c4c[nH]nc4-c4cc(Cl)ccc4F)nc3c2)C1 [Compound 1-31, 1-(6-(3-(5-chloro-2-fluorophenyl)-1H-pyrazol-4-yl)-1,5-naphthyridin-3-yl)-N,N-dimethylazetidin-3-amine] | ≤ 20 nM
18 | 0.0398 to 0.316 nM | CN1CC=C(c2cnc3ccc(-c4c[nH]nc4-c4cc(Cl)c(F)cc4F)nc3c2)C1 [Compound 6-43, 2-(3-(5-chloro-2,4-difluorophenyl)-1H-pyrazol-4-yl)-7-(1-methyl-2,5-dihydro-1H-pyrrol-3-yl)-1,5-naphthyridine] | ≤ 20 nM
19 | 0.0398 to 0.316 nM | NC(=O)C1(N2CCN(c3cnc4ccc(-c5c[nH]nc5-c5cc(Cl)ccc5F)nc4c3)CC2)CCCC1 [Compound 1-32, 1-[4-[6-[3-(5-chloro-2-fluoro-phenyl)-1H-pyrazol-4-yl]-1,5-naphthyridin-3-yl]piperazin-1-yl]cyclopentanecarboxamide] | 25.1 to 158 nM
20 | ≤ 0.0316 nM | CN1CC=C(c2nc3n(n2)CCN(c2cnc4ccc(-c5c[nH]nc5-c5cc(Cl)ccc5F)nc4c2)C3)C1 [Compound 1-86, 2-(3-(5-chloro-2-fluorophenyl)-1H-pyrazol-4-yl)-7-(2-(1-methyl-2,5-dihydro-1H-pyrrol-3-yl)-5,6-dihydro-[1,2,4]triazolo[1,5-a]pyrazin-7(8H)-yl)-1,5-naphthyridine] | 25.1 to 158 nM
21 | 0.0398 to 0.316 nM | Fc1cc(F)c(-c2n[nH]cc2-c2ccc3ncc(-c4nnn5c4NCC5)cc3n2)cc1Cl [Compound 6-58, 2-[3-(5-chloro-2,4-difluoro-phenyl)-1H-pyrazol-4-yl]-7-(5,6-dihydro-4H-imidazo[1,2-c]triazol-3-yl)-1,5-naphthyridine] | 25.1 to 158 nM
22 | 0.0398 to 0.316 nM | NC1CC=C(c2cnc3ccc(-c4c[nH]nc4-c4cc(Cl)ccc4F)nc3c2)CC1 (stereo not shown) [Compound 1-91, 4-(6-(3-(5-chloro-2-fluorophenyl)-1H-pyrazol-4-yl)-1,5-naphthyridin-3-yl)cyclohex-3-en-1-amine] | ≤ 20 nM
23 | 0.398 to 3.16 nM | Fc1ccc(Cl)cc1-c1[nH]cnc1-c1ccc2ncc(N3CCCNCC3)cc2n1 [Compound 2-7, 2-[5-(5-chloro-2-fluoro-phenyl)-1H-imidazol-4-yl]-7-(1,4-diazepan-1-yl)-1,5-naphthyridine] | 25.1 to 158 nM
